Values quoted from earlier work, collected in publication PMC2916017 (Journal of biomedical optics, 2009).

Legend:
[1] = biological target: T1, caspase-3 (Homo sapiens, UniProt P42574); settings: standard substrate, comparison value; no reference given
T1 sequence (P42574 29-175 limits assumed): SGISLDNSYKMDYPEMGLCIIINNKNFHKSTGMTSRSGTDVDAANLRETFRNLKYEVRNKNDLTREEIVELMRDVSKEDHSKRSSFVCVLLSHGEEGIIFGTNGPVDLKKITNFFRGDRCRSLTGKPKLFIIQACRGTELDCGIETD
T1 sequence (P42574 176-277 limits assumed): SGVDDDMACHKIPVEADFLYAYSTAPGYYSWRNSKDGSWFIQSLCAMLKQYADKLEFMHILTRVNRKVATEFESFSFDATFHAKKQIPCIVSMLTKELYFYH

[2] = test system: αvβ3–positive tumor; settings: previous work; specific activities 200–500 Ci/mmol

Row | Substance | Km [1] [µM] | kcat [1] [s⁻¹] | tumor visualization by small animal PET [2]
1 | Ac-DEVD-AMC | 9.7 | 0.75 | –
2 | Ac-DEVD-pNA | 11 | – | –
3 | ^64Cu-DOTA-c(RGDyK) (head to tail) | – | – | receptor specific tumor accumulation allowed for αvβ3–positive tumor visualization by small animal PET
